The subject of one series is NSCLC. Particulars: in combination with chemotherapy; cited from earlier work.
For series [1], the system named is R988C c-Met transgenic C. elegans. The method, then: (§1) To examine the effect of human c-met gene expression in C. elegans, both wild-type c-Met cDNA and mutant c-Met cDNA were individually micro-injected into young adult wild type N2 hermaphrodite gonads (gonad syncitium), at a concentration of 25 μg/ml. The constructs for the mutant c-Met cDNA were generated as described above. Control animals (N2) were injected with vector alone. Injected animals were individually cloned and their progeny were observed under dissecting microscope. Progenies were isolated and examined for visible morphological abnormalities such as defects in vulval formation, body morphology and locomotion. Individually cloned transgenic animals were further analyzed for fecundity and viability.
(§2) Animals in the progeny harboring a visible phenotype such as vulva defect, body morphology change, locomotion defect, and paralysis; and animals showing hyperactivity were isolated, individually cloned and examined with dissecting microscope. For detailed analysis of the phenotype, individual animals were mounted on an agar pad and observed under a Nikon Eclipse E600 fluorescence microscope equipped for Nomarski optics. Images were taken by a Hamamatsu Photonics CCD camera, and processed using the Metamorph digital imaging software (Siddiqui et al., Am J Physiol Lung Cell Mol Physiol 286, L1016-26 (2004)).
(§3) To determine whether a c-Met germline mutation alone is sufficient for lung cancer development or whether in order to develop lung cancer development a synergism of c-Met with smoking is necessary, the C. elegans transgenic animals described above were exposed to nicotine. Nicotine response experiments were performed in M9 buffer as previously described by Waggoner, et al. (Waggoner et al., J Neurosci 20, 8802-11 (2000)). Animals were cultured at 20° C. on nematode growth media (NGM) plates seeded with E. coli strain OP50. To examine the nicotine dose response, individual young adult hermaphrodites were placed in 6-well microtiter plate in M9 buffer at different concentrations of nicotine. Following one hour incubation with nicotine medium plates at 20° C., total numbers of eggs laid by each individual animal were counted.

Series [2] deals with T1010I c-Met transgenic C. elegans. Here is the method:
as §1, §2, §3

For a further series, the system named is C. elegans N2 wild type. The method, then:
as §1, §2, §3

The test system of series [3] is wild type human c-Met transgenic C. elegans. Particulars: Wt c-Met. The method, then:
as §1, §2, §3

Series [4] concerns reactive oxygen species (ROS) in MU melanoma cells. The series is described as follows: Reactive oxygen species measurement by DHE immunofluorescence. The series is classed as cell-based, human. Particulars: HGF 40 ng/ml for 7.5 min; DHE. The method, then:
5×10^4 MU melanoma cells were plated in 35 mm petri dishes. After 24 hrs MU Melanoma cells were kept in serum free media containing 0.5% BSA with and without 5 μM SU11274 for 12 hrs. Cells were treated with 40 ng/ml HGF for 7.5 min, then treated with DHE 10 μM (molecular probes Inc, Eugene, Oreg.) for 30 min, after which they were visualized under a fluorescent Olympus microscope IX81, 20× objective, ND3 and Rhodamine filter sets. Fluorescence was then quantified using Image J and graphed.
The endogenous levels of reactive oxygen species (ROS) was also analyzed in MU melanoma cells with and without HGF treatment using DHE by fluorescence microscopy. DHE is a redox sensitive probe that has widely been used to detect intracellular superoxide anion. The relative levels of ROS were increased in response to HGF by 47%, and SU11274 decreased the ROS response to HGF to 3%.

Where [5] appears, read: chronic exposure with nicotine (20 μm).
Where [6] appears, read: nicotine (20 μM) for 24 hours or more.

Several values for one entry are separate records, joined by “and”; a condition that tells them apart may be missing. Equal entries are not always repeated.

In the case of “bevacizumab: targeted therapy against VEGF”, the “enhancement of median overall survival” value in the series with NSCLC is 2.3 months.
`CN1CCCC1c1cccnc1` (stereo not shown) [nicotine]: the “Body Shape Changes” value was 18% and 18 ± 0.13 % in series [1] (setting [5]); 21% and 21 ± 0.14 % in series [2] (setting [5]); 3% and 3 ± 0.21 % in the series on C. elegans N2 wild type (setting [5]); 12% and 12 ± 0.22 % in series [3] (setting [5]). Moreover, the “Growth Arrest” value in series [1] (setting [5]) was 22.9% and 22.9 ± 0.41 %; in series [2] (setting [5]), 29% and 29.0 ± 0.11 %; in the series on C. elegans N2 wild type (setting [5]) it was 1.23% and 1.23 ± 0.19 %; in series [3] (setting [5]), 9.72% and 9.72 ± 0.16 %. In addition, the viability in series [1] (in the presence of nicotine) is 30.54%; in series [2] (in the presence of nicotine), 4.58%; in the series with C. elegans N2 wild type (in the presence of nicotine), 91.94%; in series [3] (in the presence of nicotine), 65.06%. For the same compound, the vulval defects in series [1] (setting [6]) is listed as 15%; in series [2] (setting [6]) it was 28%; with C. elegans N2 wild type (setting [6]) it was 2%; in series [3] (setting [6]), 6%. For the same compound, the “Locomotion Defects” value in the series with C. elegans N2 wild type (setting [5]) was 1% and 1 ± 0.18 %; in series [3] (setting [5]), 11% and 11 ± 0.09 %. Moreover, the Paralysis is 2% and 2 ± 0.02 % in the series with C. elegans N2 wild type (setting [5]); 8% and 8 ± 0.08 % in series [3] (setting [5]).
As to “HGF: hepatocyte growth factor, the ligand for c-Met”, the “increase of relative levels of ROS” value in series [4] stood at 47%.
